# Experimental data: US10683292B2, “Purine and 3-deazapurine analogues as choline kinase inhibitors” (NERVIANO MEDICAL SCIENCES S.R.L., priority 2016, dated 2020)
# What was measured:
# [1] = target: T1, hChoKβ FL (Homo sapiens, UniProt Q9Y259); experiment: Biochemical kinase inhibition assay (Kinase-Glo Luminescent Kinase Assay) on hChoKβ FL; conditions: ATP 5 μM, choline 20 μM, 60 minutes at rt; read-out: IC50 ChoKβ
# T1 construct: hChoKβ full length (FL), corresponding to aminoacids 2-395; GST (N, cleaved yes); Prescission Protease recognition site (N, cleaved yes); made in house; host or cells: Escherichia coli BL21pLysS (DE3)
# Method: (§1) The biochemical activity of compounds against Δ49N-ChoKα and ChoKβ FL were determined using the Kinase-Glo™ Luminescent Kinase Assay (Promega cat. V6711).
# (§2) Compounds were 3-fold serially diluted from 10 to 0.0005 μM, then incubated for 60 minutes at rt in the presence of ATP 5 μM, choline (5 μM for ChoKα and 20 μM for ChoKβ) and enzyme in a final volume of 19 μL of kinase buffer (50 mM Hepes pH 7.5, 10 mM MgCl2, 1 mM DTT, 3 μM Na3VO4 and 0.2 mg/mL BSA). The final concentration of DMSO was 1%.
# (§3) At the end of the incubation, an amount of 19 μL of KinaseGlo Reagent was added to each well to stop the reaction and after 30 minutes the luminescence signal was measured using ViewLux reader (Perkin Elmer).
# (§4) The data per each molecule are analyzed by an internally customized version of the SW package “Assay Explorer” which provides sigmoidal fittings of the ten-dilution curves for IC50 determination using a 4 parameter logistic equation: y=bottom+(top−bottom)/(1+10^((log IC50−x)*slope)) where x is the logarithm of the inhibitor concentration, y is the response; y starts at bottom and goes to top with a sigmoid shape.
# [2] = target: T2, Δ49N-hChoKα (Homo sapiens, UniProt P35790); experiment: Biochemical kinase inhibition assay (Kinase-Glo Luminescent Kinase Assay) on Δ49N-hChoKα; conditions: ATP 5 μM, choline 5 μM, 60 minutes at rt; read-out: IC50 ChoKα
# T2 construct: cDNA fragment 362-1534, corresponding to aminoacids 50-457; GST (N, cleaved yes); Prescission Protease recognition site (N, cleaved yes); made in house; host or cells: Escherichia coli BL21pLysS (DE3)
# T2 sequence (P35790 50-457, stated change not applied): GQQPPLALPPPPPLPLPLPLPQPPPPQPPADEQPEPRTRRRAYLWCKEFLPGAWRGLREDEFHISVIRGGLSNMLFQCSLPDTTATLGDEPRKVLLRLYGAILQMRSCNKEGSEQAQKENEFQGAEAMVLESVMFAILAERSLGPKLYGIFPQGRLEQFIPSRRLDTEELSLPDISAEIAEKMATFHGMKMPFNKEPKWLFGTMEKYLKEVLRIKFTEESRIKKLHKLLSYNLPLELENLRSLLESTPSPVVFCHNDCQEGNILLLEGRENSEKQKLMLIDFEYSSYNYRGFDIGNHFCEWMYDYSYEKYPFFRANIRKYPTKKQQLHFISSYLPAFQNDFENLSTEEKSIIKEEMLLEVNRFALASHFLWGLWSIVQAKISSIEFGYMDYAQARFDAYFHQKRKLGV
# Method: as §1, §2, §3, §4
# T1 sequence (Q9Y259 2-395): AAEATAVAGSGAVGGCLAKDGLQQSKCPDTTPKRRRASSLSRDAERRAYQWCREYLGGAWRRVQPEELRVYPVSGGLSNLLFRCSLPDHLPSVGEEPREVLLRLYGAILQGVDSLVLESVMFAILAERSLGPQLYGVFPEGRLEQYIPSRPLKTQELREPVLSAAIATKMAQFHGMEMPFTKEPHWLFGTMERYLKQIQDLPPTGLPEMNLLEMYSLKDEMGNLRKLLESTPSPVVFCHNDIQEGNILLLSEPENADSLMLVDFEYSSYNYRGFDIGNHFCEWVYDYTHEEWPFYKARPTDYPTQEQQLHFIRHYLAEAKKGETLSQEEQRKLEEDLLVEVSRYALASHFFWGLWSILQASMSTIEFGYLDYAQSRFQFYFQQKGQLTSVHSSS
IC50 [1] [µM],IC50 [2] [nM],Compound
> 10,19,"C#Cc1nc(N)c2ncn([C@H]3CC[C@@H](C(=O)Nc4nc5c(s4)CN(C)CC5)CC3)c2n1 [cpd 201, cis-4-(6-amino-2-ethynyl-9H-purin-9-yl)-N-(5-methyl-4,5,6,7-tetrahydro[1,3]thiazolo[5,4-c]pyridin-2-yl)cyclohexanecarboxamide]"
> 10,86,"COc1nc(N)c2ncn([C@H]3CC[C@@H](C(=O)Nc4nc(C)cs4)CC3)c2n1 [cpd 84, cis-4-(6-amino-2-methoxy-9H-purin-9-yl)-N-(4-methyl-1,3-thiazol-2-yl)cyclohexanecarboxamide]"
> 10,16,"Nc1nc(F)nc2c1ncn2[C@H]1CC[C@@H](C(=O)Nc2nc3c(s2)CCCC3)CC1 [cpd 206, cis-4-(6-amino-2-fluoro-9H-purin-9-yl)-N-(4,5,6,7-tetrahydro-1,3-benzothiazol-2-yl)cyclohexanecarboxamide]"
5.2,15,"Nc1nc(Cl)nc2c1ncn2[C@H]1CC[C@@H](C(=O)Nc2nc3c(s2)CCCC3)CC1 [cpd 205, cis-4-(6-amino-2-chloro-9H-purin-9-yl)-N-(4,5,6,7-tetrahydro-1,3-benzothiazol-2-yl)cyclohexanecarboxamide]"
> 10,196,"Nc1nc(Cl)nc2c1ncn2[C@H]1CC[C@@H](C(=O)Nc2nnc(C(F)(F)F)s2)CC1 [cpd 64, cis-4-(6-amino-2-chloro-9H-purin-9-yl)-N-[5-(trifluoromethyl)-1,3,4-thiadiazol-2-yl]cyclohexanecarboxamide]"
5.62,178,"Nc1nc(Cl)nc2c1ncn2[C@H]1CC[C@@H](C(=O)Nc2nc3cc(Cl)ccc3o2)CC1 [cpd 94, cis-4-(6-amino-2-chloro-9H-purin-9-yl)-N-(5-chloro-1,3-benzoxazol-2-yl)cyclohexanecarboxamide]"
> 10,88,"Cc1csc(NC(=O)[C@H]2CC[C@@H](n3cnc4c(N)nc(C#N)nc43)CC2)n1 [cpd 102, cis-4-(6-amino-2-cyano-9H-purin-9-yl)-N-(4-methyl-1,3-thiazol-2-yl)cyclohexanecarboxamide]"
> 10,844,"COc1ccc(NC(=O)[C@H]2CC[C@@H](n3cnc4c(N)nc(-c5ccncc5)nc43)CC2)cc1OC [cpd 37, cis-4-[6-amino-2-(pyridin-4-yl)-9H-purin-9-yl]-N-(3,4-dimethoxyphenyl)cyclohexanecarboxamide]"
> 10,514,"Nc1nc(Cl)nc2c1ncn2[C@H]1CC[C@@H](NC(=O)c2nc3ccccc3s2)CC1 [cpd 140, N-[cis-4-(6-amino-2-chloro-9H-purin-9-yl)cyclohexyl]-1,3-benzothiazole-2-carboxamide]"
> 10,28,"Nc1nc(Cl)nc2c1ncn2[C@H]1CC[C@@H](C(=O)Nc2nc3ccc(Cl)cc3s2)CC1 [cpd 90, cis-4-(6-amino-2-chloro-9H-purin-9-yl)-N-(6-chloro-1,3-benzothiazol-2-yl)cyclohexanecarboxamide]"
> 10,11,"Nc1nc(F)nc2c1ncn2[C@H]1CC[C@@H](C(=O)Nc2nc3c(s2)CC(F)(F)CC3)CC1 [cpd 191, cis-4-(6-amino-2-fluoro-9H-purin-9-yl)-N-(6,6-difluoro-4,5,6,7-tetrahydro-1,3-benzothiazol-2-yl)cyclohexanecarboxamide]"
> 10,257,"Nc1nc(C(F)(F)F)nc2c1ncn2[C@H]1CC[C@@H](C(=O)Nc2nc3ccc(F)cc3s2)CC1 [cpd 132, cis-4-[6-amino-2-(trifluoromethyl)-9H-purin-9-yl]-N-(6-fluoro-1,3-benzothiazol-2-yl)cyclohexanecarboxamide]"
6.09,306,"COc1cccc(NC(=O)N[C@H]2CC[C@@H](n3cnc4c(N)nc(Cl)nc43)CC2)c1 [cpd 197, 1-[cis-4-(6-amino-2-chloro-9H-purin-9-yl)cyclohexyl]-3-(3-methoxyphenyl)urea]"
> 10,33,"CN1CCc2nc(NC(=O)[C@H]3CC[C@@H](n4cnc5c(N)nc(I)nc54)CC3)sc2C1 [cpd 198, cis-4-(6-amino-2-iodo-9H-purin-9-yl)-N-(5-methyl-4,5,6,7-tetrahydro[1,3]thiazolo[5,4-c]pyridin-2-yl)cyclohexanecarboxamide]"
7.04,65,"Nc1nc2ccc(OC(=O)[C@H]3CC[C@@H](n4cnc5c(N)nc(Cl)nc54)CC3)cc2s1 [cpd 159, 2-amino-1,3-benzothiazol-6-yl cis-4-(6-amino-2-chloro-9H-purin-9-yl)cyclohexanecarboxylate]"
6.08,48,"Cc1cc2nc(NC(=O)[C@H]3CC[C@@H](n4cnc5c(N)nc(Cl)nc54)CC3)sc2cc1C [cpd 93, cis-4-(6-amino-2-chloro-9H-purin-9-yl)-N-(5,6-dimethyl-1,3-benzothiazol-2-yl)cyclohexanecarboxamide]"
> 10,416,"Cc1csc(NC(=O)[C@H]2CC[C@@H](n3cnc4c(N)nc(C(F)(F)F)nc43)CC2)n1 [cpd 129, cis-4-[6-amino-2-(trifluoromethyl)-9H-purin-9-yl]-N-(4-methyl-1,3-thiazol-2-yl)cyclohexanecarboxamide]"
> 10,176,"Cc1csc(NC(=O)[C@H]2CC[C@@H](n3cnc4c(N)nc(-c5cccc(O)c5)nc43)CC2)n1 [cpd 103, cis-4-[6-amino-2-(3-hydroxyphenyl)-9H-purin-9-yl]-N-(4-methyl-1,3-thiazol-2-yl)cyclohexanecarboxamide]"
4.98,195,"C#Cc1nc(N)c2ncn([C@H]3CC[C@@H](C(=O)Nc4cccc(OC)c4)CC3)c2n1 [cpd 45, cis-4-(6-amino-2-ethynyl-9H-purin-9-yl)-N-(3-methoxyphenyl)cyclohexanecarboxamide]"
> 10,70,"CN(c1nc(CC(N)=O)cs1)C(=O)[C@H]1CC[C@@H](n2cnc3c(N)nc(Cl)nc32)CC1 [cpd 164, cis-4-(6-amino-2-chloro-9H-purin-9-yl)-N-[4-(2-amino-2-oxoethyl)-1,3-thiazol-2-yl]-N-methylcyclohexanecarboxamide]"
> 10,–,"COc1cccc(NC(=O)[C@H]2CC[C@@H](n3cnc4c(N)nc(-c5ccncc5)nc43)CC2)c1 [cpd 9, cis-4-[6-amino-2-(pyridin-4-yl)-9H-purin-9-yl]-N-(3-methoxyphenyl)cyclohexanecarboxamide]"
6.11,24,"CC1(C)Cc2nc(NC(=O)[C@H]3CC[C@@H](n4cnc5c(N)nc(Cl)nc54)CC3)sc2CO1 [cpd 195, cis-4-(6-amino-2-chloro-9H-purin-9-yl)-N-(6,6-dimethyl-6,7-dihydro-4H-pyrano[4,3-d][1,3]thiazol-2-yl)cyclohexanecarboxamide]"
–,883,"COc1cccc(NC(=O)[C@H]2CC[C@@H](n3cnc4c(N)nc(-c5ccnc(OC)c5)nc43)CC2)c1 [cpd 21, cis-4-[6-amino-2-(2-methoxypyridin-4-yl)-9H-purin-9-yl]-N-(3-methoxyphenyl)cyclohexanecarboxamide]"
> 10,–,"CC1(C)Cc2nc(NC(=O)[C@H]3CC[C@@H](n4cnc5c(N)nc(F)nc54)CC3)sc2C(C)(C)N1 [cpd 190, cis-4-(6-amino-2-fluoro-9H-purin-9-yl)-N-(4,4,6,6-tetramethyl-4,5,6,7-tetrahydro[1,3]thiazolo[5,4-c]pyridin-2-yl)cyclohexanecarboxamide]"
–,419,"COc1cccc(NC(=O)[C@H]2CC[C@@H](n3cnc4c(N)nc(-c5ccnc(F)c5)nc43)CC2)c1 [cpd 15, cis-4-[6-amino-2-(2-fluoropyridin-4-yl)-9H-purin-9-yl]-N-(3-methoxyphenyl)cyclohexanecarboxamide]"
–,795,"COc1cccc(NC(=O)[C@H]2CC[C@@H](n3cnc4c(N)nc(-c5ccc(F)nc5)nc43)CC2)c1 [cpd 19, cis-4-[6-amino-2-(6-fluoropyridin-3-yl)-9H-purin-9-yl]-N-(3-methoxyphenyl)cyclohexanecarboxamide]"

Compound,IC50 [1] [µM],IC50 [2] [nM]
"NC(=O)Cc1ccc2nc(NC(=O)[C@H]3CC[C@@H](n4cnc5c(N)nc(Cl)nc54)CC3)sc2c1 [cpd 177, cis-4-(6-amino-2-chloro-9H-purin-9-yl)-N-[6-(2-amino-2-oxoethyl)-1,3-benzothiazol-2-yl]cyclohexanecarboxamide]",3.81,–
"Cc1csc(NC(=O)[C@H]2CC[C@@H](n3cnc4c(N)nc(C#C[Si](C)(C)C)nc43)CC2)n1 [cpd 98, cis-4-{6-amino-2-[(trimethylsilyl)ethynyl]-9H-purin-9-yl}-N-(4-methyl-1,3-thiazol-2-yl)cyclohexanecarboxamide]",> 10,120
"COc1cccc2sc(NC(=O)[C@H]3CC[C@@H](n4cnc5c(N)nc(Cl)nc54)CC3)nc12 [cpd 91, cis-4-(6-amino-2-chloro-9H-purin-9-yl)-N-(4-methoxy-1,3-benzothiazol-2-yl)cyclohexanecarboxamide]",7.38,–
"COc1ccc2nc(NC(=O)[C@H]3CC[C@@H](n4cnc5c(N)nc(Cl)nc54)CC3)sc2c1 [cpd 92, cis-4-(6-amino-2-chloro-9H-purin-9-yl)-N-(6-methoxy-1,3-benzothiazol-2-yl)cyclohexanecarboxamide]",5.03,–
"Nc1nc(Cl)nc2c1ncn2[C@H]1CC[C@@H](C(=O)Nc2nc3c(s2)CN(C2CC2)CC3)CC1 [cpd 184, cis-4-(6-amino-2-chloro-9H-purin-9-yl)-N-(5-cyclopropyl-4,5,6,7-tetrahydro[1,3]thiazolo[5,4-c]pyridin-2-yl)cyclohexanecarboxamide]",6.71,–
